Laboratory results published in PubChem BioAssay (NCI).
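Tested at 5 concentrations; 48 h exposure; 96-well plates; endpoints linearly interpolated, else capped at highest concentration. GI50 marks 50% less growth. TGI: total growth inhibition.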

How the values were obtained:
Test in all cases: inhibition of tumour cell growth, NCI panel, 48 h
[1] = test system: RPMI-8226 leukemia
[2] = test system: SW-620 colon
[3] = test system: KM12 colon
[4] = test system: U251 CNS
[5] = test system: HOP-92 NSCLC
[6] = test system: IGROV1 ovarian
[7] = test system: T-47D breast
[8] = test system: SF-539 CNS
[9] = test system: NCI-H460 lung
[10] = test system: UACC-62 melanoma

SMILES	GI50 [1]	TGI [1]	GI50 [2]	TGI [2]	GI50 [3]	TGI [3]	GI50 [4]	TGI [4]	GI50 [5]	TGI [5]	GI50 [6]	TGI [6]	GI50 [7]	TGI [7]	GI50 [8]	TGI [8]	GI50 [9] [µM]	TGI [9] [µM]	GI50 [10]	TGI [10]
COc1ccc(/C(COc2ccc3c(=O)cc(-c4ccccc4)oc3c2)=N\O)cc1	22.3 µM	> 50 µM	> 35.6 µM	> 50 µM	12.5 µM	> 42.6 µM	14.8 µM	> 50 µM	> 27.7 µM	> 50 µM	16.6 µM	> 47.6 µM	21.7 µM	> 45.8 µM	12.8 µM	24.3 µM	13.3	> 50	10.9 µM	31.4 µM
COc1ccc(-c2cn(-c3cc(OC)c(OC)c(OC)c3)c(SCc3ccccc3)n2)cc1OC	> 100 µM	> 100 µM	> 100 µM	> 100 µM	> 100 µM	> 100 µM	> 100 µM	> 100 µM	> 100 µM	> 100 µM	> 100 µM	> 100 µM	41.5 µM	> 100 µM	> 100 µM	> 100 µM	> 100	> 100	> 100 µM	> 100 µM
COc1cc([N+](=O)[O-])c(OC)cc1-c1nc2sc(Cl)cn2c1/C(N)=N/C(=N)N	5.73 µM	20.5 µM	2.15 µM	4.63 µM	2.75 µM	9.16 µM	3.41 µM	> 100 µM	7.06 µM	24 µM	5.18 µM	> 54.6 µM	2.31 µM	5.63 µM	4.53 µM	50.8 µM	16.1	46.7	15 µM	35.3 µM
COc1cc(NC(C)CCCNC2CN3CCC2CC3)c2ncccc2c1 (stereo not given)			11.9 µM	27.6 µM	14.6 µM	29.1 µM	10.6 µM	24 µM	4.37 µM	21.8 µM	11.5 µM	31.2 µM	4.54 µM	20.5 µM	15.2 µM	30.5 µM	15.9	32.3	3.2 µM	10.5 µM
COc1cc2ccc(/C=C\[N+](=O)[O-])cc2cc1OC		5.44 µM		> 24.6 µM		19.3 µM		9.87 µM		10.1 µM		3.92 µM		12.5 µM		4.91 µM		> 56.4		21.7 µM
Cc1nn2c(/C=C3\C(=O)Nc4ccc(Cl)cc43)c(C)nc2s1	33.2 µM	> 100 µM	23.4 µM	> 100 µM	6.84 µM	> 100 µM	46.5 µM	> 100 µM	> 100 µM	> 100 µM	23.7 µM	> 100 µM	42.8 µM	> 100 µM	45 µM	> 100 µM	16.3	> 100	82.1 µM	> 100 µM
CC/C=C1/C(=O)C=C[C@@H]1C/C=C\CCCC(=O)OC	0.699 µM	5.54 µM			2.08 µM	5.06 µM	2.75 µM	9.96 µM	12.1 µM	25.1 µM	3.76 µM	15.8 µM	3.79 µM	16.7 µM	3.66 µM	13.7 µM			1.97 µM	4.6 µM
COc1cc2c(cc1C)NC(=O)/C2=C/c1ccccn1	3.93 µM	> 100 µM	6.91 µM	> 100 µM			2.92 µM	> 100 µM	2.9 µM	89.4 µM	9.6 µM	> 100 µM	19.3 µM	> 100 µM	0.024 µM	2.47 µM	3.56	> 100	2.85 µM	13.9 µM
CC(C)(C)n1cc(-c2ccnc(NCCCNS(=O)(=O)c3ccc(C(F)(F)F)cc3)c2)c(-c2cccc(O)c2)n1			1.89 µM	3.71 µM			1.71 µM	3.53 µM	1.6 µM	3.31 µM	1.8 µM	3.55 µM	2.24 µM	6.61 µM	1.65 µM	3.09 µM	1.86	3.57	1.69 µM	3.23 µM
COc1ccc2cc(C(=O)/C=C/c3ccc(Cl)cc3Cl)ccc2c1	6.81 µM	> 100 µM	7.83 µM	25.5 µM	14.3 µM	35 µM	16.7 µM	36.2 µM	> 100 µM	> 100 µM			20.8 µM	66.8 µM	3.98 µM	13.7 µM	70.7	> 100	12 µM	86.5 µM
FC(F)(F)c1ccc(Nc2nc(-c3c(C(F)(F)F)nc4ccccn34)cs2)cc1	0.0739 µM	6.01 µM	0.0373 µM	12.3 µM	0.0393 µM	4.23 µM	0.0764 µM	11 µM			0.422 µM	12.1 µM	0.0453 µM	9.07 µM	0.0383 µM	0.276 µM	0.0353	4.75	0.0385 µM	3.43 µM
CCC(C)(CC(C)(C)C(=O)NCC(=O)NC(Cc1ccccc1)C(=O)NC(Cc1ccccc1)C(=O)NCC(=O)NC1CC(OC2CC(O)(C(=O)CO)Cc3c(O)c4c(c(O)c32)C(=O)c2c(OC)cccc2C4=O)OC(C)C1O)C(=O)NCC(C)O (stereo not given)	36 µg/mL	> 150 µg/mL	131 µg/mL	> 150 µg/mL	66.3 µg/mL	> 150 µg/mL	51.2 µg/mL	> 150 µg/mL	> 150 µg/mL	> 150 µg/mL	41.7 µg/mL	> 150 µg/mL	70.3 µg/mL	> 150 µg/mL	53 µg/mL	> 150 µg/mL			75 µg/mL	> 150 µg/mL
CN(CCCn1c2c(c3ccccc3c1=O)C(=O)c1ccccc1-2)CCCn1c2c(c3ccccc3c1=O)C(=O)c1ccccc1-2			0.188 µM	> 100 µM	0.15 µM	1.05 µM			0.0671 µM	1.9 µM			0.259 µM	18.3 µM	0.181 µM	0.75 µM	0.242	> 100	3.08 µM	45.3 µM
COC(=O)C1(C)CCC(c2ccc(C)cc2)=C(CC(=O)O)C1 (stereo not given)		> 100 µM		> 100 µM				> 100 µM		> 100 µM		> 100 µM		> 100 µM		> 100 µM		> 100		> 100 µM
